In PMC10453699 (Current Issues in Molecular Biology, 2023):
Several values for one entry are separate records, joined by “and”; a condition that tells them apart may be missing. Identical values can stand only once. Entries after “also recorded” stand apart in the source; their conditions may differ. Like-named read-outs stand apart in the source and are kept apart here.

Legend:
[1] = test system: human small intestinal epithelial cells (HSEIC); conditions: for cell viability (MTT absorbance at 595 nm): vs vehicle control, doses given with the value; for Long-Term Cytotoxicity / Short-Term Cytotoxicity: MTT in HSEIC, N/A = no cytotoxicity seen; for Long-Term Cytotoxicity: doses cytotoxic after long exposure; for Short-Term Cytotoxicity: doses cytotoxic after short exposure; for cytotoxic effects overall (MTT): over all doses and time points tested (24-96 h), or time not stated
[2] = test system: IL-6; format: cell-based, human; conditions: cotreatment experiments (Figures 7-15), single and combined doses given with the value; vs TNF-α/IFN-γ group
[3] = test system: COX-2; assay: Western blot of COX-2 protein in TNF-α/IFN-γ-treated HSEIC; format: cell-based, human; conditions: for COX-2 protein levels relative to GAPDH: cotreatment experiments (Figures 7-15), single and combined doses given with the value
[4] = test system: porcine intestinal epithelial cells; set-up: method as in PMID 32735667; conditions: pretreatment with 100 μM; cited from earlier work
[5] = test system: dextran sulfate sodium-induced colitis; set-up: method as in PMID 34478286; conditions: 20 mg/kg, consumed orally for 17 days; cited from earlier work
[6] = single ligands (Figure 6), vs TNF-α/IFN-γ group, doses given with the value

Row | SMILES | cell viability (MTT absorbance at 595 nm) ([1]; 24 h exposure) | cell viability (MTT absorbance at 595 nm) ([1]; 48 h exposure) | cell viability (MTT absorbance at 595 nm) ([1]; 72 h exposure) | cell viability (MTT absorbance at 595 nm) ([1]; 96 h exposure) | IL-6 protein levels relative to GAPDH [2] | Fold Change of COX-2 [3] [×] | Most Effective Dose [3] [µM] | COX-2 protein levels relative to GAPDH ([3]; vs TNF-α/IFN-γ group) | normalized COX-2 levels (COX-2/GAPDH) [3, 6] | Long-Term Cytotoxicity [1] [µM] | Short-Term Cytotoxicity [1] [µM] | cytotoxic effects overall (MTT) [1] | COX-2 levels decreased by [3] [×] | also measured
1 | CC(=O)Oc1cccc2[nH]cc(CCN(C)C)c12 [4-AcO-DMT, 4-Acetoxy-N,N-dimethyltryptamine] | doses of 10, 20, 40, 80, and 160 μM significantly increased the cell viability | doses of 10, 20, 40, 80, and 160 μM significantly increased the cell viability | 5 (p < 0.01), 10 (p < 0.0001), 20 (p < 0.01), 40, 80, and 100 μM (p < 0.0001) significantly increased the cell viability | all doses significantly increased (p < 0.0001) the cell viability | significantly reduced only in the 20 μM of 4-AcO-DMT combined with 25 μM of Eug, 40 μM of 4-AcO-DMT, and 40 μM of 4-AcO-DMT combined with 25 μM of Eug groups; also recorded: IL-6 was upregulated in the 10 μM of 4-AcO-DMT, 25 μM of Eug, 10 μM of 4-AcO-DMT combined with 25 μM of Eug, and 20 μM of 4-AcO-DMT group | −1.5 | 20 | only the combination of 20 μM of 4-AcO-DMT with 0.5 μM of Cap and 40 μM of 4-AcO-DMT significantly reduced the COX-2 levels; also recorded: significantly reduced in the 10 μM of 4-AcO-DMT, 25 μM of Eug, 20 μM of 4-AcO-DMT combined with 25 μM of Eug, 40 μM of 4-AcO-DMT, and 40 μM of 4-AcO-DMT combined with 25 μM of Eug groups | significant decrease in the relative COX-2 levels at the concentrations of 10 (p < 0.01), 20 (p < 0.0001), and 40 μM and 5 μM significantly increased relative COX-2 levels |  |  |  |  | 
2 | COc1cc(CNC(=O)CCCC/C=C/C(C)C)ccc1O [Cap, capsaicin] | 50 μM after 24 h (p < 0.05), 100 μM after 24 and 48 h (p < 0.05), and 200 μM after 24 h (p < 0.01) and 48 h (p < 0.0001) significantly decreased the cell viability | 50 μM after 24 h (p < 0.05), 100 μM after 24 and 48 h (p < 0.05), and 200 μM after 24 h (p < 0.01) and 48 h (p < 0.0001) significantly decreased the cell viability |  |  |  | −1.6 | 0.5 | effectively reduced COX-2 levels | a reduction in COX-2 levels was observed only at a dose of 0.5 μM; also recorded: both 0.1 and 1 μM showed a trend towards decreased normalized COX-2/GAPDH levels | ≥0.5 | ≥50 | did not demonstrate significant cytotoxicity in either the short- or long-term doses tested |  | 
3 | COc1cc(/C=C/C(=O)CC(=O)/C=C/c2ccc(O)c(OC)c2)ccc1O [Cur, curcumin] |  | cytotoxic effects across all doses | cytotoxic effects across all doses | cytotoxic effects across all doses |  |  | 0.5 |  |  | ≥1 | ≥5 | most substantial and severe decreases in cell viability were observed at 20, 40, and 80 μM | 3.8 | Long-Term Cytotoxicity ([1]; listed as Curcumin): ≥ 1 µM; Short-Term Cytotoxicity ([1]; listed as Curcumin): ≥ 5 µM; normalized COX-2 levels (COX-2/GAPDH) [3]: Psi (40 μM), Cur (0.5 μM), and Eug (50 μM) significantly reduced COX-2 levels without cytotoxic effects; also recorded: significantly reduced normalized COX-2 levels at concentrations of 0.5 (p < 0.0001), 2.5 (p < 0.01), 5, and 10 μM
4 | C=CCc1ccc(O)c(OC)c1 [Eug, eugenol] | 10 (p < 0.01), 100 (p < 0.05), 200 (p < 0.01), 400 (p < 0.001), and 800 (p < 0.0001) μM of eugenol decreased the cell viability | exposure to 50 (p < 0.001), 100 (p < 0.001), 200 (p < 0.0001), 400 (p < 0.0001), and 800 μM (p < 0.0001) for 48 h significantly reduced the cell viability | only 200 (p < 0.001), 400 (p < 0.0001), and 800 μM (p < 0.0001) of eugenol significantly reduced the cell viability | all doses reduced the cell viability | IL-6 was upregulated in the 10 μM of 4-AcO-DMT, 25 μM of Eug, 10 μM of 4-AcO-DMT combined with 25 μM of Eug, and 20 μM of 4-AcO-DMT group | −3.8 |  | significantly reduced in the 10 μM of 4-AcO-DMT, 25 μM of Eug, 20 μM of 4-AcO-DMT combined with 25 μM of Eug, 40 μM of 4-AcO-DMT, and 40 μM of 4-AcO-DMT combined with 25 μM of Eug groups | Psi (40 μM), Cur (0.5 μM), and Eug (50 μM) significantly reduced COX-2 levels without cytotoxic effects | ≥10 | ≥10 | demonstrated both short-term and long-term cytotoxic effects | 3.8 | Long-Term Cytotoxicity ([1]; listed as Eugenol): ≥ 10 µM; Short-Term Cytotoxicity ([1]; listed as Eugenol): ≥ 10 µM; Most Effective Dose ([3]; dose most effective in lowering COX-2 (and IL-6) in TNF-α/IFN-γ-treated HSEIC): 50 µM; normalized COX-2 levels (COX-2/GAPDH) ([3]; single ligands (Figure 6), vs TNF-α/IFN-γ group, doses given with the value, listed as eugenol): remarkable efficacy in reducing the normalized COX-2 levels at all tested concentrations; LPS-induced IL-8 and TNF-α transcript levels [4]: significantly suppress the LPS-induced IL-8 and TNF-α transcript levels; pathological scores [5]: reduced the pathological scores
5 | O=C(c1ccc(F)cc1)C1CCN(CCn2c(=O)[nH]c3ccccc3c2=O)CC1 [Ket, ketanserin] |  |  |  |  |  |  | 1 |  | Only 1 (p < 0.0001) and 10 μM (p < 0.01) of ketanserin significantly lowered COX-2 levels and 20 μM of ketanserin led to a significant increase in the normalized COX-2 levels and higher doses significantly increased COX-2 levels |  |  |  |  | 
6 | CN(C)CCc1c[nH]c2cccc(OP(=O)(O)O)c12 [Psi, psilocybin] | significantly increased the number of viable cells at doses of 20 (p < 0.001), 40, 80, and 160 μM | increased the cell viability at 20 (p < 0.01), 40 (p < 0.001), 80, and 160 μM |  | 80 (p < 0.05) and 160 μM (p < 0.0001) of psilocybin for 96 h significantly increased the cell viability | 20 μM psilocybin and 10 μM psilocybin combined with 0.5 μM curcumin showing the most significant reductions and the 10 μM psilocybin treatment group, which significantly upregulated the IL-6 levels | −3.8 | 40 | effectively reduced COX-2 levels and 40 μM psilocybin all significantly decreased the COX-2 levels | Psi (40 μM), Cur (0.5 μM), and Eug (50 μM) significantly reduced COX-2 levels without cytotoxic effects |  |  |  |  | normalized COX-2 levels (COX-2/GAPDH) ([3]; single ligands (Figure 6), vs TNF-α/IFN-γ group, doses given with the value, listed as Psilocybin): significant reductions in the normalized COX-2 levels across all concentrations tested (5, 10, 20, and 40 μM)
